According to US7097969B2, “Non-endogenous, constitutively activated known G protein-coupled receptors” (Arena Pharmaceuticals, Inc., priority 2000, dated 2006):

Assays:
[1] = test system: GPR5; assay: Cell-based cAMP for Gi coupled target GPCRs, co-transfection with signal enhancer TSHR-A623I; parameters: species or system human; settings: FIG. 2
From the text: (§1) A Gi coupled receptor is known to inhibit adenylyl cyclase, and, therefore, decrease the level of cAMP production, which can make assessment of cAMP levels challenging. An effective technique in measuring the decrease in production of cAMP as an indication of constitutive activation of a receptor that predominantly couples Gi upon activation can be accomplished by co-transfecting a signal enhancer, e.g., a non-endogenous, constitutively activated receptor that predominantly couples with Gs upon activation (e.g., TSHR-A623I, disclosed below), with the Gi linked GPCR (such a technique is exemplified herein with the Gi coupled receptor, GPR24). As is apparent, constitutive activation of a Gs coupled receptor can be determined based upon an increase in production of cAMP. Constitutive activation of a Gi coupled receptor leads to a decrease in production cAMP. Thus, the co-transfection approach is intended to advantageously exploit these “opposite” affects. For example, co-transfection of a non-endogenous, constitutively activated Gs coupled receptor (the “signal enhancer”) with the endogenous Gi coupled receptor (the “target receptor”) provides a baseline cAMP signal (i.e., although the Gi coupled receptor will decrease cAMP levels, this “decrease” will be relative to the substantial increase in cAMP levels established by constitutively activated Gs coupled signal enhancer). By then co-transfecting the signal enhancer with a constitutively activated version of the target receptor, cAMP would be expected to further decrease (relative to base line) due to the increased functional activity of the Gi target (i.e., which decreases cAMP).
(§2) TSHR is a Gs coupled GPCR that causes the accumulation of cAMP upon activation. TSHR was constitutively activated by mutating amino acid residue 623 (i.e., changing an alanine residue to an isoleucine residue). See, SEQ.ID.NO.:402 for nucleic acid sequence and SEQ.ID.NO.:403 for deduced amino acid sequence. A Gi coupled receptor is expected to inhibit adenylyl cyclase, and, therefore, decrease the level of cAMP production, which can make assessment of cAMP levels challenging. An effective technique for measuring the decrease in production of cAMP as an indication of constitutive activation of a Gi coupled receptor can be accomplished by co-transfecting, most preferably, non-endogenous, constitutively activated TSHR (TSHR-A623I) (or an endogenous, constitutively active Gs coupled receptor) as a “signal enhancer” with a Gi linked target GPCR, such as GPR24, to establish a baseline level of cAMP. Upon creating a non-endogenous version of the Gi coupled receptor, this non-endogenous version of the target GPCR is then co-transfected with the signal enhancer, and it is this material that can be used for screening. We utilized such approach to effectively generate a signal when a cAMP assay is used; this approach is preferably used in the direct identification of candidate compounds against Gi coupled receptors. It is noted that for a Gi coupled GPCR, when this approach is used, an inverse agonist of the target GPCR will increase the cAMP signal and an agonist will decrease the cAMP signal.
(§3) On day one, 2×10^4 Hek-293 and Hek-293T cells/well were plated out. On day two, two reaction tubes were prepared (the proportions to follow for each tube are per plate): tube A was prepared by mixing 2 μg DNA of each receptor transfected into the mammalian cells, for a total of 4 μg DNA (e.g., pCMV vector; pCMV vector with mutated THSR (TSHR-A623I); TSHR-A623I and GPR24, etc.) in 1.2 ml serum free DMEM (Irvine Scientific, Irvine, Calif.); tube B was prepared by mixing 120 μl lipofectamine (Gibco BRL) in 1.2 ml serum free DMEM. Tubes A and B were then admixed by inversion (several times), followed by incubation at room temperature for 30–45 min. The admixture is referred to as the “transfection mixture”. Plated Hek-293 cells were washed with 1×PBS, followed by addition of 10 ml serum free DMEM. […]

[2] = test system: GPR24; assay: Intracellular IP3 accumulation assay (Gq-associated receptors); assay type: cell-based, human; settings: FIG. 4
Method: On day 1, cells comprising the receptors (endogenous and/or non-endogenous) can be plated onto 24 well plates, usually 1×10^5 cells/well (although this number can be optimized. On day 2 cells can be transfected by firstly mixing 0.25 μg DNA in 50 μL serum free DMEM/well and 2 μL lipofectamine in 50 μl serum-free DMEM/well. The solutions are gently mixed and incubated for 15–30 min at room temperature. Cells are washed with 0.5 ml PBS and 400 μl of serum free media is mixed with the transfection media and added to the cells. The cells are then incubated for 3–4 hrs at 37° C./5% CO2 and then the transfection media is removed and replaced with 1 ml/well of regular growth media. On day 3 the cells are labeled with ^3H-myo-inositol. Briefly, the media is removed and the cells are washed with 0.5 ml PBS. Then 0.5 ml inositol-free/serum free media (GIBCO BRL) is added/well with 0.25 μCi of ^3H-myo-inositol/well and the cells are incubated for 16–18 hrs o/n at 37° C./5% CO2. On Day 4 the cells are washed with 0.5 ml PBS and 0.45 ml of assay medium is added containing inositol-free/serum free media 10 μM pargyline 10 mM lithium chloride or 0.4 ml of assay medium and 50 μL of 10× ketanserin (ket) to final concentration of 10 μM. The cells are then incubated for 30 min at 37° C. […]

[3] = test system: GPR24; assay: Cell-based cAMP for Gi coupled target GPCRs, co-transfection with signal enhancer TSHR-A623I; parameters: species or system human; settings: FIG. 1; for decrease in cAMP production compared to TSHR-A623I with endogenous GPR24 (GPR24 wt): co-transfected with TSHR-A623I; for cAMP production: cells co-transfected with TSHR-A623I, in the presence of TSH
From the text: as §1, §2, §3

increase in IP3 accumulation compared to the endogenous version of GPR24 (GPR24 wt) [2] | Molecule | cAMP production ([1]; cells co-transfected with TSHR-A623I, in the presence of TSH) | decrease in production of cAMP against pCMV co-transfected with TSHR-A623I ([1]; reference pCMV + TSHR-A623I 106.75 pmol cAMP/well) | decrease in cAMP production compared to TSHR-A623I with endogenous GPR24 (GPR24 wt) [3] | cAMP production [3]
– | GPR5 wt: endogenous target receptor GPR5 | 58.79 pmol cAMP/well | ~45% | – | –
~32% | I261Q: non-endogenous version of the human GPR24 receptor with I261Q mutation (SEQ.ID.NO.:387) | – | – | ~27% | –
– | GPR24 wt: endogenous human GPR24 (also known as MCH or SLC-1) receptor [reference compound] | – | – | – | 336.5 pmol cAMP/well
~27% | 24-IC3-SST2: non-endogenous human GPR24 in which the IC3 loop is replaced with that of SST2 (SEQ.ID.NO.:359) (protein, listed as Homo sapiens) MDLEASLLPTGPNASNTSDGPDNLTSAGSPPRTGSISYINIIMPSVFGTICLLGIIGNSTVIFAVVKKSKLHWCNNVPDIFIINLSVVDLLFLLGMPFMIHQLMGNGVWHFGETMCTLITAMDANSQFTSTYILTAMAIDRYLATVHPISSTKFRKPSVATLVICLLWALSFISITPVWLYARLIPFPGGAVGCGIRLPNPDTDLYWFTLYQFFLAFALPFVVITAAYVRILQKVKSSGIRVGSSKRKKSEKKVTRTAIAICLVFFVCWAPYYVLQLTQLSISRPTLTFVYLYNAAISLGYANSCLNPFVYIVLCETFRKRLVLSVKPAAQGQLRAVSNAQTADEERTESKGTYFPCHPAHLQVRAPQHATGRDAEKNPRPLGKCRKAGLGVVAMKIHSMGSHVAGEAWSQVWGFQISEIPWGSRMRPLDRTEAEQENMLVWITGC | – | – | ~22% | 262.266 pmol cAMP/well
